One assay is filed under the species Oryctolagus cuniculus. Put plainly: Effect on 35 mM K+-induced contraction on rabbit aorta at a dose of 3*10e-9 mol/L. The assay is classed as functional.
Assay [1] concerns Felis catus. Briefly: Effect of intraperitoneal infusion on diastolic pressure in Anesthetized cats at a dose of 200 mg/kg at 15 min. The assay is classed as functional.
In assay [2] the test system is Felis catus. Briefly: Effect of intraperitoneal infusion on systolic pressure in Anesthetized cats at a dose of 200 mg/kg at 15 min. The assay is classed as functional.
Assay [3] concerns Felis catus. Put plainly: Effect of intravenous infusion on cardiac frequency in Anesthetized cats at a dose of 0.75 mg/kg at 5 min. The assay is classed as functional, Heart.
The test system of assay [4] is Felis catus. Put plainly: Effect of intraperitoneal infusion on diastolic pressure in Anesthetized cats at a dose of 200 mg/kg at 165 min. The assay is classed as functional.
For the next assay, the species on record is Mus musculus. Briefly: Dose required to protect 50% of tested mice against experimental antithrombosis. The assay is classed as functional.
In assay [5] the test system is Felis catus. Put plainly: Effect of intraperitoneal infusion of compound on cardiac frequency in Anesthetized cats at a dose of 200 mg/kg at 150 min. The assay is classed as functional, Heart.
Assay [6] has as its system Felis catus. Put plainly: Effect of intraperitoneal infusion on diastolic pressure in Anesthetized cats at a dose of 200 mg/kg at 120 min. The assay is classed as functional.
The test system of assay [7] is Felis catus. Put plainly: Effect of intraperitoneal infusion on systolic pressure in Anesthetized cats at a dose of 200 mg/kg at 120 min. The assay is classed as functional.

Several values for one entry are separate records, joined by “and”; a condition that tells them apart may be missing. Equal values may be shown once.

With `CCO/C(O)=C1\C(C)=NC(C)=C(C(=O)OCCN2C(=O)c3ccccc3S2(=O)=O)C1C` (centres undefined), in the assay listed under Oryctolagus cuniculus, the Inhibition stood at 0%. Further, the Arterial pressure with Felis catus [1] was 90 mmHg; in the assay with Felis catus [2], 130 mmHg; in the assay with Felis catus [4], 80 mmHg; in the assay on Felis catus [6], 85 mmHg; with Felis catus [7] it was 145 mmHg. Also, the results for the Cardiac frequency in the assay on Felis catus [3] and with Felis catus [5] were 195 beats min-1 and 265 beats min-1, respectively. Also, the ED50 in the assay listed under Mus musculus is 2.23 µmol/kg and 1 mg/kg.
